Test results from ChEMBL document CHEMBL5715954, “Silencing c-Myc translation as a therapeutic strategy through targeting PI3Kδ and CK1ε in hematological malignancies” (Blood, 2017).

Experiments:
Parameters in all cases: scale not given: the % may be the effect or the level left
[1] = target: Vascular endothelial growth factor receptor 1 (Homo sapiens) (UniProt P17948); experiment: Inhibition of human FLT1 assessed as enzyme activity at 1 uM using poly[Glu:Tyr] (4:1) as substrate preincubated for 20 mins followed by [gamma-33P]-ATP addition and measured after 120 mins by radiometric Hot-SpotSM Kinase assay relative to control
Sequence of Vascular endothelial growth factor receptor 1 (Homo sapiens) (P17948 whole entry): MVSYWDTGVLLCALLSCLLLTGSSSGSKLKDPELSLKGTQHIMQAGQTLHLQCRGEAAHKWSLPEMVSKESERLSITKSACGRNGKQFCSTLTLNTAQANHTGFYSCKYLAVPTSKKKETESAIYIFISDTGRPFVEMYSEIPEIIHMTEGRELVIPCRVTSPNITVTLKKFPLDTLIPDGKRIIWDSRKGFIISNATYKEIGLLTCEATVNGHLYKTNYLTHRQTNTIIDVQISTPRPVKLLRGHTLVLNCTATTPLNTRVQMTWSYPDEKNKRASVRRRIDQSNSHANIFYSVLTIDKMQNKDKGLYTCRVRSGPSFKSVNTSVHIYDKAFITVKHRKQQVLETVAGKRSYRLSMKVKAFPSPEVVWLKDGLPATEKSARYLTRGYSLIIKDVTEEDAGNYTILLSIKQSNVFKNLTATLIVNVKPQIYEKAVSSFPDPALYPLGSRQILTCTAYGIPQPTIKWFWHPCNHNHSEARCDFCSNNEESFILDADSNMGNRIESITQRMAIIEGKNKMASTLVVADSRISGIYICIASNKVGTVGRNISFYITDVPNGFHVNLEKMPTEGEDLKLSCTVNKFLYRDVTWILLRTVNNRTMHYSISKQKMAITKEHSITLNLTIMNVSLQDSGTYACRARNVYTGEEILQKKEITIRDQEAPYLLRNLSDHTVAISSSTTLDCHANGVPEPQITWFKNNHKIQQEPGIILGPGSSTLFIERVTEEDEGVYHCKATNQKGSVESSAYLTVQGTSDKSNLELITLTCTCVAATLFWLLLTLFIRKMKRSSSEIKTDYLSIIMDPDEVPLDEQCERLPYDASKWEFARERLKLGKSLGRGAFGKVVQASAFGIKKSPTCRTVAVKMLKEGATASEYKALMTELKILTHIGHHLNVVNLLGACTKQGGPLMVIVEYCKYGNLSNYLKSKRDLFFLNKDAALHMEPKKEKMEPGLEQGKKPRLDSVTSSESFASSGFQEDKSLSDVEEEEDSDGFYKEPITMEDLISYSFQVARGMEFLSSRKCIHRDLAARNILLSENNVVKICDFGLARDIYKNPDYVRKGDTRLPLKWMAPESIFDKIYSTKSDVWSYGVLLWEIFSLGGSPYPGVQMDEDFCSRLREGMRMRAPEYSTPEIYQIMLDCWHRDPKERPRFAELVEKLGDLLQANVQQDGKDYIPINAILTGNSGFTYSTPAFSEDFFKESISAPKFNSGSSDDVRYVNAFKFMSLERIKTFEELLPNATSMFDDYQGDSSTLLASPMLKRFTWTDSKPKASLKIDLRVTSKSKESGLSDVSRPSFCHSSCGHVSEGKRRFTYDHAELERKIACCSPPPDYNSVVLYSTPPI

[2] = target: T1, Mitogen-activated protein kinase kinase kinase 5 (Homo sapiens) (UniProt Q99683); experiment: Inhibition of human ASK1 assessed as enzyme activity at 1 uM using myelin basic protein as substrate preincubated for 20 mins followed by [gamma-33P]-ATP addition and measured after 120 mins by radiometric Hot-SpotSM Kinase assay relative to control
T1 sequence (whole entry): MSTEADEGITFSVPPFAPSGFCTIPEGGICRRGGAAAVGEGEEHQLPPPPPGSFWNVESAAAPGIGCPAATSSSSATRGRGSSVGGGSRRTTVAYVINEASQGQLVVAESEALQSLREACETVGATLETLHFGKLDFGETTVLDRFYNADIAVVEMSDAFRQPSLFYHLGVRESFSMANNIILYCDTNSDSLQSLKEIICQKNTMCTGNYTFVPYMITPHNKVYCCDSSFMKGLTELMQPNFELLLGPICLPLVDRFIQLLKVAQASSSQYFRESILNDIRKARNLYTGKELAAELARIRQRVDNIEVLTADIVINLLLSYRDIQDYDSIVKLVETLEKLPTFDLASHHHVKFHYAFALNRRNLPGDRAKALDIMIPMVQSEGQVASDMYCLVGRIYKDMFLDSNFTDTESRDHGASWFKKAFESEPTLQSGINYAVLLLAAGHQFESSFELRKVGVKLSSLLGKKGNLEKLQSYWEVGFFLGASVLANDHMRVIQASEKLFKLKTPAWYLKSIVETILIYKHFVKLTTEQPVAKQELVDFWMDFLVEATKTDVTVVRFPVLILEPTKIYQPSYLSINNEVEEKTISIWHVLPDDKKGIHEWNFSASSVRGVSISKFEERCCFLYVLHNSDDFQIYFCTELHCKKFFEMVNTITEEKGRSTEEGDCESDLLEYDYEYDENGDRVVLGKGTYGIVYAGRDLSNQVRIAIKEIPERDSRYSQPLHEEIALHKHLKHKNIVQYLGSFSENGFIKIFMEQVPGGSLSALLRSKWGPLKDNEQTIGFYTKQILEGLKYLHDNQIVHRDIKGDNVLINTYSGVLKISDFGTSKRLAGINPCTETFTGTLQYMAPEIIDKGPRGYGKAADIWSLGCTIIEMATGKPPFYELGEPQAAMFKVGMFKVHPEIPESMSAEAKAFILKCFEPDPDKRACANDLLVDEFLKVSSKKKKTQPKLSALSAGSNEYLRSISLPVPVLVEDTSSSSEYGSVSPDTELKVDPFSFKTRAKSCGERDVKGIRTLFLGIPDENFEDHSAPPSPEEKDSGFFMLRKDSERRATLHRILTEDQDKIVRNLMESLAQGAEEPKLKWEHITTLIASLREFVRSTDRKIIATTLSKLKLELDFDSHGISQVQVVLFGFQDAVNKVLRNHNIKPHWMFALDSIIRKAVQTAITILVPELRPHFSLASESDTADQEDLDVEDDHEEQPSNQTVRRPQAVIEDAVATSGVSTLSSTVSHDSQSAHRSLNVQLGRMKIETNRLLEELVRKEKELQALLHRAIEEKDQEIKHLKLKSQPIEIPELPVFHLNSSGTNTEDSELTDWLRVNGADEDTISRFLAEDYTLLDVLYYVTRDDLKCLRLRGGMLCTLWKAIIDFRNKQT

[3] = target: T2, Testis-specific serine/threonine-protein kinase 1 (Homo sapiens) (UniProt Q9BXA7); experiment: Inhibition of human STK22D assessed as enzyme activity at 1 uM using KKKVSRSGLYRSPSMPENLNRPR as substrate preincubated for 20 mins followed by [gamma-33P]-ATP addition and measured after 120 mins by radiometric Hot-SpotSM Kinase assay relative to control
T2 sequence (whole entry): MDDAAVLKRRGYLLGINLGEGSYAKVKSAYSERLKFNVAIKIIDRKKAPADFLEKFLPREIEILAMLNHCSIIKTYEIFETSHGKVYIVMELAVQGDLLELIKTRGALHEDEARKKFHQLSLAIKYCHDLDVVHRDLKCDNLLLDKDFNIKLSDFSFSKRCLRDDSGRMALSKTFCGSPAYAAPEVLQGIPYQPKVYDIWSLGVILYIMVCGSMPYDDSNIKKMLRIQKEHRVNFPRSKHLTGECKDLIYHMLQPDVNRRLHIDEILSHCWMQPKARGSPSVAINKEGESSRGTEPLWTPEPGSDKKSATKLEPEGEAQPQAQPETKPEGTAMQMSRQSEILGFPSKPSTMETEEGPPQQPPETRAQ

[4] = target: Protein kinase C beta type (Homo sapiens) (UniProt P05771); experiment: Inhibition of human PKCb2 assessed as enzyme activity at 1 uM using ERMRPRKRQGSVRRRV as substrate preincubated for 20 mins followed by [gamma-33P]-ATP addition and measured after 120 mins by radiometric Hot-SpotSM Kinase assay relative to control
Sequence of Protein kinase C beta type (Homo sapiens) (P05771 2-671 limits assumed): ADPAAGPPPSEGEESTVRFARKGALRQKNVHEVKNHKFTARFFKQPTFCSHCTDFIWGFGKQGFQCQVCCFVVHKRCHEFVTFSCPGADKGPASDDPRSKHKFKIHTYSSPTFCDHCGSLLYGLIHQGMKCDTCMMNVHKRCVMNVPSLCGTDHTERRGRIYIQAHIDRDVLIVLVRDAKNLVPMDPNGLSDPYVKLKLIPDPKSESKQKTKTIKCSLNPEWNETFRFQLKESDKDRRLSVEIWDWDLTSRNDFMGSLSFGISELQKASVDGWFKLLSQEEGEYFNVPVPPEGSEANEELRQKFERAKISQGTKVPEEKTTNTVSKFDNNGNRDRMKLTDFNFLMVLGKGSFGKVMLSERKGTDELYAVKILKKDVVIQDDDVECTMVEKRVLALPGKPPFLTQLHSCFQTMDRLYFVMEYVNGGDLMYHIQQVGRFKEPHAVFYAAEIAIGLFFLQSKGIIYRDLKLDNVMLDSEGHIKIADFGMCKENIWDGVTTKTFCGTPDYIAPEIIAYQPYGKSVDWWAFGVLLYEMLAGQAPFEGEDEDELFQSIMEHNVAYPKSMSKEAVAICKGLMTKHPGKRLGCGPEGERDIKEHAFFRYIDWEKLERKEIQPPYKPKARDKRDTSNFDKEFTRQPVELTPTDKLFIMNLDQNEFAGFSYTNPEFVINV

[5] = target: Fibroblast growth factor receptor 1 (Homo sapiens) (UniProt P11362); experiment: Inhibition of human FGFR1 assessed as enzyme activity at 1 uM using poly[Glu:Tyr] (4:1) as substrate preincubated for 20 mins followed by [gamma-33P]-ATP addition and measured after 120 mins by radiometric Hot-SpotSM Kinase assay relative to control
Sequence of Fibroblast growth factor receptor 1 (Homo sapiens) (P11362 22-822 limits assumed): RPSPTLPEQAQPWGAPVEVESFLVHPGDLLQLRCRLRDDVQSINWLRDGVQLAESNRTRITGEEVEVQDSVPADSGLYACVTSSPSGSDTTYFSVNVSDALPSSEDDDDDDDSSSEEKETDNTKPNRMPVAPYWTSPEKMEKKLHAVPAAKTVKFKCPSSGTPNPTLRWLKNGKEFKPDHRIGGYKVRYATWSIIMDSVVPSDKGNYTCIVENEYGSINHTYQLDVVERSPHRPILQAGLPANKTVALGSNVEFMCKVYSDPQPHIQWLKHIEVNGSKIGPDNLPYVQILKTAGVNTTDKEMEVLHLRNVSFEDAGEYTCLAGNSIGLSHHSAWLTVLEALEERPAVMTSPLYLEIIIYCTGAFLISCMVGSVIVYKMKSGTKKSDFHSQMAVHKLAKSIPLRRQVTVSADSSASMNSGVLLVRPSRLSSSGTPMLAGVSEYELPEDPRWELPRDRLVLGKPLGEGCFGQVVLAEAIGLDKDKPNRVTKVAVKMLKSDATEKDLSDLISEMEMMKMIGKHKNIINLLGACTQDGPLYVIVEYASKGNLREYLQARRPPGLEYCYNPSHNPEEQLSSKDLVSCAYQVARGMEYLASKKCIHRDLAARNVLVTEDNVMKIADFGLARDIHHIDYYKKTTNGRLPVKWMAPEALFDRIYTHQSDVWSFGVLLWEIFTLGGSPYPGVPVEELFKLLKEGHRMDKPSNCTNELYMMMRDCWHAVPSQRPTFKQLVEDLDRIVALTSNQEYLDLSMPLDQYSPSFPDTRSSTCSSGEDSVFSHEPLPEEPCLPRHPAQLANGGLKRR

[6] = target: T3, Serine/threonine-protein kinase A-Raf (Homo sapiens) (UniProt P10398); experiment: Inhibition of human ARAF assessed as enzyme activity at 1 uM using MEK1 (K97R) as substrate preincubated for 20 mins followed by [gamma-33P]-ATP addition and measured after 120 mins by radiometric Hot-SpotSM Kinase assay relative to control
T3 sequence (whole entry): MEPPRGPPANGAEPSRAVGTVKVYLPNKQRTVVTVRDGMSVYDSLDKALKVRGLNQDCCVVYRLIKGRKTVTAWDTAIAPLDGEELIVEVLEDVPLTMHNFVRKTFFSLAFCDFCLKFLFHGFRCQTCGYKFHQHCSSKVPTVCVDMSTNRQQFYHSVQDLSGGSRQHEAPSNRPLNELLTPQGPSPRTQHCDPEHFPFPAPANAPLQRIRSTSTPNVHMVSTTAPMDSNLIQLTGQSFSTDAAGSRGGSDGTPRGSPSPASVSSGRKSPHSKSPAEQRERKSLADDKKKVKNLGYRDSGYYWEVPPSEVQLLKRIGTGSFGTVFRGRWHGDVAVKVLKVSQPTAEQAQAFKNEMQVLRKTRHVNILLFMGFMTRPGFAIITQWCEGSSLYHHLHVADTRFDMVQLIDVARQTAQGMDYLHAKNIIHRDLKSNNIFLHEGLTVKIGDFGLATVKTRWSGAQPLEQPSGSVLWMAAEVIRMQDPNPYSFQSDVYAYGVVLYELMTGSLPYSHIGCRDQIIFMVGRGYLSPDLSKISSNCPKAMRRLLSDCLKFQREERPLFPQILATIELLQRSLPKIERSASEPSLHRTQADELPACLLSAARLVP

Row | Compound | Activity [1] [%] | Activity [2] [%] | Activity [3] [%] | Activity [4] [%] | Activity [5] [%] | Activity [6] [%]
1 | CC[C@H](Nc1ncnc2[nH]cnc12)c1nc2cccc(F)c2c(=O)n1-c1ccccc1 | 94.4 | 102 | 98 | 91 | 98 | 92.3
2 | C[C@H](Nc1ncnc2nc[nH]c12)c1cc2cccc(Cl)c2c(=O)n1-c1ccccc1 | 94.3 | 97.7 | 93.9 | 93.9 | 95.7 | 86.4
3 | CC(C)Oc1ccc(-c2nn([C@@H](C)c3oc4ccc(F)cc4c(=O)c3-c3cccc(F)c3)c3ncnc(N)c23)cc1F [UMBRALISIB] | 92.3 | 98.4 | 95.5 | 91.3 | 99.5 | 84.4
